# Entries after “also recorded” stand apart in the source; their conditions may differ.
# Assays:
# TRPV1 [1] = molecular target: T1, TRPV1 (Rattus norvegicus, UniProt O35433); test: Viral growth assay (vTT / vHG titers by plaque assay); type: cell-based
# T1 construct: expressed in transfected cells; host or cells: ICP4/ICP27-complementing 7b cells (Vero-derived) infected with HSV-1 vector vTT
# rat TRPV1 receptor = rat TRPV1 receptor (Rattus norvegicus, UniProt O35433); test: Whole cell patch clamp recordings of capsaicin induced currents
# TRPV1 [2] = molecular target: T1, TRPV1; test: Intracellular calcium measurement (FURA-2); type: cell-based
# Method: Free intracellular calcium was measured by photon scanning on a dual excitation fluorimeter (PTI, Lawrenceville, N.J.). vTT or QOZ infected 7b cells were plated in 6 well plates containing 13.5×20 mm coverslips. Infected cells (8 hpi, 3 PFU/cell) were rinsed with 1× Hank's balanced salt solution (HBSS) and loaded with 2 μM FURA-2 (Molecular Probes Inc., Eugene, Oreg.) (Sneddon et al., 2000) for 1 hour at 37° C. in a 5% CO2 incubator. Coverslips with FURA-2 loaded cells were then placed in a cuvette containing HBBS and then separately subjected to capsaicin at either 3 or 0.3 μM concentrations. Calcium flux following the application of each concentration of capsaicin was measured at 2 Hz and graphed. Results were calibrated by adding 5 μM ionomycin to obtain the maximum fluorescence ratio, followed by addition of 10 mM EGTA to obtain the minimum fluorescence ratio. A Kd of FURA-2 for calcium of 224 nM was assumed.
# TRPV1 [3] = molecular target: T1, TRPV1; test: Capsaicin selection against vTT in mixed vHG:vTT infections; type: cell-based
# [4] = vTT infected cells, BIM pre-incubation, n=3
# [5] = vTT infected cells, mean±SEM, n=8
# [6] = vTT infected 7b cells, 5 μM ionomycin
# Chain of rat TRPV1 receptor (O35433 whole entry): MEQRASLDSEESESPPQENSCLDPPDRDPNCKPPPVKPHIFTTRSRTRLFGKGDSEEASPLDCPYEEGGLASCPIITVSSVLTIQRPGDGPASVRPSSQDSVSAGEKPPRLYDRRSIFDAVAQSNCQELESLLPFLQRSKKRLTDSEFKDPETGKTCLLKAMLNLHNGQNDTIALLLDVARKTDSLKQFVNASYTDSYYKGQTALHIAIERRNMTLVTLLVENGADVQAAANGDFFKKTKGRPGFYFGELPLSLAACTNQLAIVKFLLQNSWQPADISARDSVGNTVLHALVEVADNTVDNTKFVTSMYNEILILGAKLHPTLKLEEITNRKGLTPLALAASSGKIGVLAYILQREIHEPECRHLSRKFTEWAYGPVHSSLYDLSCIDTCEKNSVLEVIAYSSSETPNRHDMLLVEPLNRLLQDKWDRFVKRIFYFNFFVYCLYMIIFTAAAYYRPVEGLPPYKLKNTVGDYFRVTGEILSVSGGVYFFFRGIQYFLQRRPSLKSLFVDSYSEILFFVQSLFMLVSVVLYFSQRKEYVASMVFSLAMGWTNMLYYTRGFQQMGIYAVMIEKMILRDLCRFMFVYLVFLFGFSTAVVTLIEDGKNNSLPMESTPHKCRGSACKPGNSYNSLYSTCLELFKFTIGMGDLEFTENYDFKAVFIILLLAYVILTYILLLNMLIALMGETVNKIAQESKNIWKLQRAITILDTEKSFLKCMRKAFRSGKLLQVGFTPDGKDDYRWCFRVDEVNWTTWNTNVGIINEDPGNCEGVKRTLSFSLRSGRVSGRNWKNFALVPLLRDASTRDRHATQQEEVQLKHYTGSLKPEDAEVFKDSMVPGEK
# T1 sequence (O35433 whole entry): as above
structure (smiles),measurement,setting,value
COc1cccc(NC(=O)/C=C/c2ccc(Cl)cc2)c1 [SB-366791],vTT viral titers in the presence of capsaicin,"TRPV1 [1]; 1 μM and 10 μM SB-366791 + 0.5 μM capsaicin, all time points, p<0.05, n=4",dose dependent rescue
same,replication of control vector vHG,TRPV1 [1]; CAP and SB-366791 together,did not affect
same,"replication of vHG or vTT, antagonist alone",TRPV1 [1]; SB-366791 alone at 1 and 10 μM,did not affect
"CN(C)CCCn1cc(C2=C(c3c[nH]c4ccccc34)C(=O)NC2=O)c2ccccc21.Cl [BIM, bisindolylmaleimide I HCl]",effect of pre-incubation on capsaicin currents,"rat TRPV1 receptor; vTT infected 7b cells, compared to BIM untreated",significantly lower amplitude and rapidly desensitizing currents
same,Capsaicin (nA),rat TRPV1 receptor; [4],−2.2 ± 1.2 nA
same,"Capsaicin Desensitization Time-course (tau, s)",rat TRPV1 receptor; [4],53.4 ± 15.4 s
N.N.N.N.N.N.N.N.N.N.N.N.N.N.[Cl-].[Cl-].[Cl-].[Cl-].[Cl-].[Cl-].[O-2].[O-2].[Ru+3].[Ru+3].[Ru+4] [ruthenium red],antagonism of capsaicin-induced vTT specific currents,"rat TRPV1 receptor; vTT infected 7b cells, RuR 5 μM in FIG. 3",brought the current back to baseline; also recorded: antagonized
same,replication of vTT in the presence of capsaicin,TRPV1 [1],completely restored
same,"vector replication, antagonist alone",TRPV1 [1],unaffected
COc1cc(CNC(=O)CCCC/C=C/C(C)C)ccc1O [capsaicin],intracellular calcium response,"TRPV1 [2]; QOZ (control) infected cells, 0.3 or 3 μM capsaicin",no effect
same,intracellular calcium,"TRPV1 [2]; vTT infected 7b cells, 8 hpi, 3 μM capsaicin",significant increase
same,intracellular calcium response,"TRPV1 [2]; vTT infected 7b cells, 0.3 μM capsaicin, versus 3 μM",smaller response
same,Capsaicin (nA),rat TRPV1 receptor; no virus (uninfected cells),No
same,response to capsaicin stimulation,rat TRPV1 receptor; vHG (control) infected 7b cells,do not respond; also recorded: did not respond
same,Capsaicin (nA),rat TRPV1 receptor; vHG infected cells,No
same,inward current following stimulation with capsaicin,"rat TRPV1 receptor; vTT infected 7b cells, 0.5 μM capsaicin, FIG. 3 trace",9 nA
same,Capsaicin (nA),rat TRPV1 receptor; [5],−6.0 ± 0.6 nA
same,"Capsaicin Desensitization Time-course (tau, s)",rat TRPV1 receptor; [5],280.6 ± 45.1 s
same,vHG (GFP+) percent output after two passages,"TRPV1 [3]; 3 μM capsaicin, 0.005% vHG input (1:20,000 vHG:vTT)",95%
same,vHG (GFP+) percent output after one passage,"TRPV1 [3]; 3 μM capsaicin, 0.005% vHG input (1:20,000 vHG:vTT), 72 hpi",66%
same,vHG proportion after two passages,"TRPV1 [3]; capsaicin, 1:100,000 vHG input",40%
same,lowest concentration with significant differences in replication between vHG and vTT,TRPV1 [1],0.3 µM
same,vTT replication,TRPV1 [1],specifically inhibited
same,vHG titers,TRPV1 [1]; 3 μM CAP alone,without affecting
same,"growth ratio (GR), vHG to vTT virus yield, greatest differential","TRPV1 [1]; 3 μM capsaicin, 72 hpi, p<0.05, n=4",~500 fold
"C=C(C)[C@]12C[C@@H](C)[C@@]34O[C@](Cc5ccccc5)(O[C@@H]1[C@@H]3C=C(COC(=O)Cc1ccc(O)c(OC)c1)C[C@]1(O)C(=O)C(C)=C[C@@H]41)O2 [RTX, resiniferatoxin]","growth ratio (GR), highest observed difference","TRPV1 [1]; 1 μM RTX, 72 hpi, p<0.05, n=4",474
same,capsaicin dose relative to RTX dose giving similar reduction in vTT viral titers,"TRPV1 [1]; nanomolar RTX, all time points",~100 fold
O=C(O)CN(CCOCCOCCN(CC(=O)O)CC(=O)O)CC(=O)O [EGTA],intracellular calcium signal after capsaicin and ionomycin,"TRPV1 [2]; vTT infected 7b cells, 10 mM EGTA",return to baseline levels
"CCCC(=O)O[C@@H]1[C@@H](C)[C@@]2(O)[C@@H](C=C(CO)C[C@]3(O)C(=O)C(C)=C[C@@H]23)[C@@H]2C(C)(C)[C@]12OC(=O)CCC [PDBu, phorbol 12,13-dibutyrate]",effect on capsaicin current after the first phase of desensitization,"rat TRPV1 receptor; vTT infected 7b cells, PDBu 5 μM",did not affect the current; also recorded: could not be enhanced
C[C@H](CCC(=O)O)C[C@H](C)C[C@H](C)C(=O)/C=C(\O)[C@H](C)C[C@H](C)C/C=C/[C@@H](C)[C@@H](O)[C@@H](C)[C@@H](O)C[C@@H]1CC[C@@](C)([C@H]2CC[C@@](C)([C@@H](C)O)O2)O1 [ionomycin],calcium influx,"TRPV1 [2]; QOZ infected cells, 5 μM ionomycin",maximal calcium influx
same,intracellular calcium response after 0.3 μM capsaicin,TRPV1 [2]; [6],further increased
same,intracellular calcium response after 3 μM capsaicin,TRPV1 [2]; [6],did not further increase
